Values belong to the compound of their own block, whether it stands above or below them. Square brackets hold non-standard residues; d marks the D form. Ends that are not written are not given here. Peptide text beside a SMILES is read from it. pT = C[C@@H](OP(=O)(O)O)[C@H](N)C(=O)O; pS = N[C@@H](COP(=O)(O)O)C(=O)O
Assays:
HeLa Tet-On cells = test: mitotic index by flow cytometry, Bub1-depleted cells; format: cell-based, human; details: partial Bub1 depletion, BI 2536 1 µM, nocodazole; n = 3; as shown previously (Jia et al., 2016)
Procedure: HeLa Tet-On cells were initially purchased from Clontech (Mountain View, CA), and were cultured in Dulbecco’s Modified Eagle Medium (DMEM, Invitrogen, Carlsbad, CA) supplemented with 10% fetal bovine serum and 2 mM L-glutamine. The cells were authenticated by genome sequencing and metaphase chromosome spread, and were routinely checked by 4',6-diamidino-2-phenylindole (DAPI) staining to ascertain that they were free of mycoplasma contamination. For G1/S synchronization, cells were treated with 2 mM thymidine (Sigma, St. Louis, MO) for 14–16 hr. For mitotic arrest, cells were treated with 330 nM or 1 µM nocodazole (Sigma) or 100 nM taxol (Sigma) for 12–14 hr. Other chemicals used in this study were: RO3306 (Sigma) at 20 µM, BI 2536 (Selleck Chemicals, Houston, TX) at 1 µM, MG132 (Selleck Chemicals) at 10 µM, okadaic acid (LC lab, Woburn, MA) at 500 nM, and reversine (Cayman Chemical, Ann Arbor, MI) at 1 µM.
For RNAi experiments, cells were transfected with siRNA oligonucleotides (Dharmacon, Lafayette, CO) using Lipofectamine RNAiMAX (Invitrogen) and harvested at 24–72 hr after transfection. The sequences of the siRNAs were (from 5’ to 3’): siBub1-c, […] […]
Cells were synchronized at G1/S with thymidine and released into fresh medium containing 330 nM nocodazole for 13 hr before being harvested. […] The samples were analyzed on a FACSCalibur flow cytometer (BD Biosciences). […]

[1] = target: T1, C-terminal domain (CTD) of scMad1 (Saccharomyces cerevisiae, UniProt P40957); test: ITC, scBub1 fragment or phospho-peptides with scMad1 CTD; format: binding; details: 20°C, 25 mM HEPES pH 7.5, 150 mM NaCl, scMad1 20 µM in cell, scBub1 phospho-peptide or fragment 300 µM injected, read-out: Kd, dissociation constant
T1 sequence (P40957 633-749 limits assumed): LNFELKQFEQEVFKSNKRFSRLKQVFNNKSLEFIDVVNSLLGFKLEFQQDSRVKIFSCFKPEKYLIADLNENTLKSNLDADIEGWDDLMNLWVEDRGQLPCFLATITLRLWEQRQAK
Procedure: All isothermal titration calorimetry (ITC) assays were performed with a MicroCal Omega ITC200 titration calorimeter (GE Life Sciences) at 20°C. Recombinant scMad1^CTD protein or scMad1–scMad2 complexes were dialyzed into the HEPES Buffer I (25 mM HEPES, pH 7.5, 150 mM NaCl). Recombinant human Mad1^CTD protein was dialyzed into the HEPES Buffer II (25 mM HEPES, pH 7.5, 50 mM NaCl). For each titration, 300 μl of scMad1 proteins (20 µM) or human Mad1 (50 µM) were added to the calorimeter cell. The scBub1 phospho-peptides or purified scMps1-phosphorylated scBub1_449–530 fragment (300 µM) in the HEPES Buffer I or the human Bub1 phospho-peptides (500 µM) in the HEPES Buffer II were injected with an injection syringe in 19 2-μl portions. The raw data were processed and fitted with the NITPIC software package ([Keller et al., 2012]).

Bub1^ΔK–Bub3 = test: in vitro kinase assay on recombinant Bub1^ΔK–Bub3; format: biochemical, human; details: 400 nM Bub1^ΔK–Bub3, 50 nM Cdk1–Cyclin B1 or 500 nM Mps1, 1 mM ATP, room temperature, 30 min; blot
Procedure: For kinase assays, 1 μM Cdc20^ΔN60, 40 μM Mad1^E–Mad2, or 400 nM Bub1^ΔK–Bub3 was incubated with 40 nM Bub1, 500 nM Mps1, and/or 50 nM Cdk1–Cyclin B1 at room temperature for 30 min in the kinase buffer (25 mM Tris-HCl, pH 7.7, 100 mM NaCl, 10 mM MgCl2, 5 mM NaF, 20 mM β-glycerophosphate, 0.1 mM Na3VO4 and 1 mM DTT) supplemented with 1 mM ATP. The reaction mixtures were stopped with the appropriate kinase inhibitors for further protein-binding assays, or quenched with the SDS loading buffer and analyzed by Coomassie blue staining or Western blotting.

APC/C^Cdc20 = APC/C^Cdc20 inhibition by MCC components (securin ubiquitination assay); format: biochemical, Xenopus APC/C, human Cdc20; details: BubR1^N and Cdc20^ΔN60, no Bub1^ΔK–Bub3, Mad1^E–Mad2, Cdk1 or Mps1
HeLa cells = test: mitotic arrest by Mis12–Mad1 fusion proteins (mitotic index); format: cell-based, human; details: no spindle poison
Procedure: Internal deletion mutants were constructed with overlapping extension polymerase chain reaction (PCR). Point mutations were introduced with QuikChange Lightening Site-Directed Mutagenesis kit (Agilent Technologies, Santa Clara, CA). All plasmids were verified by sequencing. Plasmid transfection was performed with the Effectene reagent (Qiagen, German Town, MD) according to the manufacturer’s instructions.
[…] For Plk1 inhibition, BI 2536 was added 1 hr prior to harvest. Collected cells were washed with PBS and fixed with pre-chilled 70% ethanol at −20°C overnight. After being washed with PBS, the fixed cells were permeabilized with 0.2% Triton X-100 in PBS for 20 min. Cells were then incubated with the anti-MPM2 antibody (1:100, Millipore) in PBS containing 1% BSA for 2 hr. After being washed with PBS, cells were incubated with fluorescent secondary antibodies (Invitrogen) in PBS containing 1% BSA for 30 min. After being washed with PBS, cells were stained with 20 μg/ml propidium iodide (Sigma) in PBS containing 200 μg/ml RNase (Qiagen). All staining steps were performed at room temperature. The samples were analyzed on a FACSCalibur flow cytometer (BD Biosciences). Data were processed with the FlowJo software. The mitotic index was defined as the percentage of cells that had 4N DNA content and were also positive for MPM2 staining. […]

human Mad1 CTD = test: in vitro pull-down of human Mad1^CTD by Bub1 peptide beads; format: binding; details: peptides immobilized on SulfoLink resin, Coomassie
Procedure: Recombinant bait proteins or bacteria lysates containing bait proteins were incubated with the appropriate affinity beads. Bait-bound beads were then blocked with 2% fat-free milk when necessary before being mixed with 100 µl diluted prey proteins. After incubation, beads were washed and eluted with the SDS loading buffer. The bead-bound proteins were analyzed by Coomassie blue staining or Western blotting. […] In cases that synthesized peptides were used as bait, peptides were immobilized on SulfoLink resin (Thermo Scientific, Waltham, MA) according to the manufacturer’s instructions. The synthetic scBub1 peptides contained residues 449–473 of scBub1, various phospho-residues, and a cysteine at the N-terminus. All synthetic human Bub1 peptides, except the pS459 peptide, contained residue 455–477 of human Bub1, the appropriate phospho-residues, and a cysteine at the N-terminus. The Bub1 pS459 peptide contained residues 439–480, pT452/pS459, and a cysteine at the C-terminus.

Compound: CC[C@@H]1C(=O)N(C)c2cnc(Nc3ccc(C(=O)NC4CCN(C)CC4)cc3OC)nc2N1C1CCCC1 [BI 2536, reference compound]
effect of Plk1 inhibition with partial depletion of Bub1 on the spindle checkpoint (in words) (HeLa Tet-On cells): synergistically inactivated the spindle checkpoint and reduced nocodazole-triggered mitotic arrest

Kd [1]: 1600 nM
Compound: CC[C@H](C)[C@H](NC(=O)[C@H](C)NC(=O)[C@H](CC(=O)O)NC(=O)[C@H](CCCCN)NC(=O)[C@H](CO)NC(=O)[C@H](Cc1ccccc1)NC(=O)[C@H](C)NC(=O)[C@@H](NC(=O)[C@@H](NC(=O)[C@@H](NC(=O)[C@@H]1CCCN1C(=O)[C@H](CO)NC(=O)[C@H](CCCNC(=N)N)NC(=O)[C@H](CO)NC(=O)[C@@H](N)CS)[C@@H](C)OP(=O)(O)O)C(C)C)[C@@H](C)OP(=O)(O)O)C(=O)N[C@@H](CC(N)=O)C(=O)N[C@@H](CCC(=O)O)C(=O)N[C@H](C(=O)N[C@@H](Cc1ccccc1)C(=O)N[C@@H](CO)C(=O)N[C@@H](CCSC)C(=O)N[C@@H](Cc1ccccc1)C(=O)N[C@@H](CC(N)=O)C(=O)N[C@@H](CCC(N)=O)C(=O)N[C@@H](Cc1c[nH]cn1)C(=O)N[C@@H](Cc1ccc(O)cc1)C(=O)O)C(C)C [scBub1 pT453-pT455 peptide] (H-CSRSP[pT]V[pT]AFSKDAINEVFSMFNQHY-OH)

Kd [1]: 1600 nM
Compound: CC[C@H](C)[C@H](NC(=O)[C@H](C)NC(=O)[C@H](CC(=O)O)NC(=O)[C@H](CCCCN)NC(=O)[C@H](CO)NC(=O)[C@H](Cc1ccccc1)NC(=O)[C@H](C)NC(=O)[C@@H](NC(=O)[C@@H](NC(=O)[C@@H](NC(=O)[C@@H]1CCCN1C(=O)[C@H](CO)NC(=O)[C@H](CCCNC(=N)N)NC(=O)[C@H](CO)NC(=O)[C@@H](N)CS)[C@@H](C)O)C(C)C)[C@@H](C)OP(=O)(O)O)C(=O)N[C@@H](CC(N)=O)C(=O)N[C@@H](CCC(=O)O)C(=O)N[C@H](C(=O)N[C@@H](Cc1ccccc1)C(=O)N[C@@H](CO)C(=O)N[C@@H](CCSC)C(=O)N[C@@H](Cc1ccccc1)C(=O)N[C@@H](CC(N)=O)C(=O)N[C@@H](CCC(N)=O)C(=O)N[C@@H](Cc1c[nH]cn1)C(=O)N[C@@H](Cc1ccc(O)cc1)C(=O)O)C(C)C [scBub1 pT455 peptide] (H-CSRSPTV[pT]AFSKDAINEVFSMFNQHY-OH)

phosphorylation of Bub1^ΔK–Bub3 at S459 (in words) (Bub1^ΔK–Bub3): strongly phosphorylated at S459
Compound: Cdk1: recombinant GST-Cdk1 (T14A/Y15F) co-expressed with His6-Cyclin B1 [reference compound]

Compound: Mad2^Di: dimeric Mad2 separated by ion exchange chromatography
spontaneous functional MCC formation and APC/C^Cdc20 inhibition (in words) (APC/C^Cdc20): allowed the spontaneous formation of functional MCC that inhibited securin ubiquitination by APC/C^Cdc20

Compound: Mad2^Mono: monomeric Mad2, mostly the inactive O-Mad2
spontaneous functional MCC formation and APC/C^Cdc20 inhibition (in words) (APC/C^Cdc20): only showed weak APC/C^Cdc20 inhibition at very high doses

Compound: T716A: Mis12–Mad1 with T716A mutation
mitotic arrest by Mis12–Mad1 fusion protein (in words) (HeLa cells): abrogated the function of Mis12–Mad1 more strongly than simultaneously mutating the 13 sites outside of the CTD

Compound: pS459-pT461-pT464 peptide: triply phosphorylated synthetic human Bub1 peptide, residues 455–477, N-terminal cysteine (CKVQP[pS]P[pT]VH[pT]KEALGFIMNMFQA; UniProt O43683 455-477, looked up, fragment)
binding to human Mad1 CTD (in words) (human Mad1 CTD): bound more weakly to Mad1 than the pS459-pT461 peptide
